# From patent publication US4956355A, “Agents for the arrest and therapy of retroviral infections” (Colthurst Limited, priority 1987, dated 1990)
# Read-outs that look alike come from different tables or passages of the source.
# Tests used:
# [1] = tested on: glucose-6-phosphate dehydrogenase; conditions: cited from earlier work
# HIV in human macrophages = assay: Inhibition of HIV production in normal human macrophages (supernatant p24, acute infection); type: cell-based
# Protocol: (§1) 1. […] All three viral strains were grown in the Tissue Culture Laboratory of the AIDS Activity Division of San Francisco General Hospital where titers of […] infectious units per ml were routinely achieved.
# (§2) 2. Source of cells: The VB cell line used in Example 1 is a T lymphoma cell line that is highly susceptible to infection with HIV, and expresses high levels of cell surface CD4 molecules. This cell line forms syncytia within two days after infection with all strains of HIV tested to date. […] This is used to quantitate infection in the absence of syncytial formation, infection being quantitated by immunofluorescence assays. The HXB/H9 cell line (Example 6) is an H9 cell population that chronically produces the HTLV-IIIB strain of HIV and is utilised in experiments testing antiviral effects on chronically infected cell lines. Human macrophages were prepared from peripheral blood mononuclear cells either obtained from the blood bank as a buffy coat, or as a leukophoresis preparation. Crowe et al. supra have devised an assay system that allows quantitation of HIV infection, and inhibition of infection using immunocytofluorographic analysis. In order to quantitate HIV infection in macrophages, they grow macrophages in Teflon (Trade Mark) culture vessels which maintain macrophages in suspension in vitro culture for up to six months. Cell surface and cytoplasmic immunofluorescence staining is then performed to quantitate antigens in macrophages by flow cytometry.
# (§3) 4. HIV soluble p24 antigen detection: Soluble p24 antigens were measured with the Abbott HIV antigen detection system.
# (c) To test whether Compounds A and B were effective at blocking acute infection of macrophages, macrophages from Teflon cultures were exposed at a multiplicity of 1 to HIV-DV in the presence or absence of various concentrations of drug (Examples 3-5). Normally, HIV expression peaks in human macrophages at approximately ten days after initial infection. Therefore, after infection for one hour at room temperature, followed by a wash and resuspension of the macrophages in various drug concentrations, macrophages were stained for the presence of p24 antigen at day ten. Culture supernatants from these macrophages were assayed for the presence of soluble p24, and infectious virus as described above.
# To test whether compounds A and B might be active at inhibiting infection of normal human macrophages, a spectrum of drug concentrations were tested for inhibition of acute infection, and inhibition of HIV expression in chronically infected macrophages. […] After acute infection (one hour) cells were incubated in various concentrations of compounds A and B, and 7 days after the initial infection supernatants were harvested for p24 antigen quantitation. […]
# normal human macrophages = assay: Nonspecific toxicity to normal human macrophages; type: cell-based; conditions: 10^-4 to 10^-8 molar
# Protocol: 7. Analysis of nonspecific toxicity to the target cells with Compounds A and B. The VB, H9 and HXB cell lines were exposed to different concentrations of Compounds A and B as were normal human macrophages for the length of time the drug was in contact with each cell line as described in the above assays. Cell numbers were counted, and live versus dead were determined by Trypan blue exclusion assays. These tests were required to determine a therapeutic index between nonspecific toxic effects on the described cells, compared with potential effective antiviral effects in vitro (Example 6).
# [2] = tested on: HIV in activated peripheral blood lymphocytes; assay: Inhibition of HIV mediated cytopathic effects / p24 antigen production in activated peripheral blood lymphocytes; type: cell-based; conditions: for p24 antigen production: activated PBL, about 7 days after infection, FIG. 2
# Protocol: as §1, §3
# (b) Although the VB T lymphoma cell line behaves in a similar manner to peripheral blood CD4 positive T lymphocytes in regard to HIV induced cytopathic effects, the above described experiments were performed on phytohemagglutinin (PHA) activated lymphocytes to determine whether lymphocytes are more or less sensitive to Compounds A and B than is the VB cell line. In this assay system, at the time that multinucleated giant cells appeared within infected lymphocyte cultures, the supernatants were analyzed for the presence of HIV p24 antigens and were titered on indicator VB lymphoma cells to determine the titer of infectious virus present at each point.
# To test whether the effects of compounds A and B on acute VB T lymphoma infection would be mimicked by activated peripheral blood lymphocytes (PBC), HIV at a multiplicity of infection of one was added to lymphocytes that had been activated for 48 hours with 2 μg per ml of PHA. After the initial infection for one hour, the activated lymphocytes were washed and resuspended for the one week of culture. Multinucleated giant cells began to form approximately 7 days after the initial infection, at which time the culture supernatants were harvested and tested for the presence of HIV p24 antigens. The accumulation of HIV p24 antigens in the supernatant is representative of production of HIV from infected cells.
# [3] = tested on: HIV in chronically infected human macrophages; assay: Antiviral testing of chronically HIV infected macrophages; type: cell-based
# Excerpt: as §2
# 3. Flow cytometry: An Ortho Cytofluorgraf II-S (Trade Mark) that has a biohazard containment flow cell was used for analysis of HIV infected samples. HIV p24 antigens were detected utilizing a mouse monoclonal anti-p24 (du Pont), and mouse antibodies were identified utilizing an FITC conjugated goat anti-mouse IgG.
# 6. Analysis of chronically infected cells: To determine whether compounds A and B are effective at inhibiting HIV expression in macrophages and chronically infected T cells, the following experiments were performed. The chronically infected T cell line, HXB/H9 was exposed to various concentrations of drug for four days in vitro. At four days, the HXB cells were assayed for the presence of p24 intracytoplasmically, and supernatants were assayed for the presence of infectious virus as described above.
# Because macrophages can be infected and produce HIV for very long periods of time without substantial loss of viability, chronically infected cells were tested, specifically a population that was between 30 and 50% HIV antigen positive, for inhibition of cytoplasmic HIV p24 antigen production. FIG. 5 indicates the results of three separate experiments carried out.
# [4] = tested on: peripheral blood lymphocytes; assay: Nonspecific toxicity to peripheral blood lymphocytes; type: cell-based, human
structure (smiles),measurement,setting,value
"C[C@]12CC[C@H](O)CC1=CC[C@@H]1[C@@H]2CC[C@]2(C)C(=O)CC[C@@H]12 [A, dehydroepiandrosterone]",effect on glucose-6-phosphate dehydrogenase,[1],inhibits glucose-6-phosphate dehydrogenase
same,effect on glucose-6-phosphate dehydrogenase,[1]; listed as DHEA,inhibitory effect
same,decrease in production of HIV p24 antigens (supernatant),"HIV in human macrophages; 10^-4 through 10^-8 molar, 7 days after acute infection, FIG. 3",approximately 50%
same,HIV infection and HIV expression in macrophages,"HIV in human macrophages; in vitro, reproducible, six separate monocyte/macrophage donors",inhibit HIV infection and HIV expression in macrophages
same,toxicity in normal macrophages,normal human macrophages,not appreciable toxicity
same,p24 antigen production,[2]; 10^-4 molar,moderately inhibited
same,p24 antigen production,[2]; 10^-5 molar,slightly less inhibited
same,"antiviral effects in comparison with AZT, lymphocytes",[2]; acute infection,inferior
same,antiviral effect in acute infection studies of lymphocytes,"[2]; acute infection, conclusions",mild antiviral effect
same,inhibition compared with inhibition of acute infection of macrophages,"[3]; 10^-4 and 10^-5 molar, FIG. 5 vs FIG. 4",somewhat less than the inhibition of acute infection of macrophages
same,inhibition of cytoplasmic HIV p24 antigen production in chronically infected macrophages,"[3]; both 10^-4 and 10^-5 molar, three experiments, FIG. 5",some inhibition
same,toxicity with the PBL cultures,[4]; 10^-4 and 10^-5 molar,No appreciable toxicity
same,toxicity to peripheral blood lymphocytes,[4]; 10^-4 to 10^-8 molar,nor was there appreciable toxicity
